Values joined by “and” are separate entries in the source; they are usually repeats but may differ in a detail not shown here. Equal entries are not always repeated. Inconclusive results are not listed. Residues, ends and D or L forms follow the SMILES beside them. *: point of attachment. Trt = c1ccc(C(c2ccccc2)(c2ccccc2)*)cc1; Cbz = O=C(OCc1ccccc1)*; Bn = c1ccc(C*)cc1; βAla = NCCC(=O)O
System: CD8F1 mice, subcutaneous mammary adenocarcinoma, T/C%
Assay: NCI In Vivo Anticancer Drug Screen. Data for tumor model Mammary Adenocarcinoma CD8F1 (subcutaneous) in CD8F1
Settings: higher = larger tumour
Protocol: The antitumor activity of compounds was measured in mice bearing transplantable tumors. Survival or tumor size were measured and the results are expressed as the measurement made in the treated group (T) divided by the measurement made in the vehicle treated control group (C). The tumor model used in this assay is Mammary Adenocarcinoma CD8F1 (subcutaneous) in CD8F1

[1] = endpoint: median tumor weight change, dose: 500.0 mg/kg/injection, schedule: Q01DX001 (ip), vehicle: Klucel (hydroxypropylcellulose) (HPC)
[2] = endpoint: median tumor weight change, dose: 1000.0 mg/kg/injection, schedule: Q01DX001 (ip), vehicle: Klucel (hydroxypropylcellulose) (HPC)
[3] = endpoint: median tumor weight change, dose: 1000.0 mg/kg/injection, schedule: Q01DX001 (ip), vehicle: saline with Tween-80
[4] = endpoint: median tumor weight change, dose: 125.0 mg/kg/injection, schedule: Q01DX001 (ip), vehicle: water
[5] = endpoint: median tumor weight change, dose: 250.0 mg/kg/injection, schedule: Q01DX001 (ip), vehicle: saline with Tween-80
[6] = endpoint: median tumor weight change, dose: 500.0 mg/kg/injection, schedule: Q01DX001 (ip), vehicle: saline with Tween-80
[7] = endpoint: median tumor weight change, dose: 2000.0 mg/kg/injection, schedule: Q01DX001 (ip), vehicle: saline with Tween-80

Cn1cc(C2NC(=O)c3ccccc3N2)c2ccccc21 (stereo not drawn) was tested, and the T/C (endpoint: median tumor weight change, dose: 25.0 mg/kg/injection, schedule: Q01DX001 (ip), vehicle: Klucel (hydroxypropylcellulose) (HPC)) was 85 % of control, the T/C (endpoint: median tumor weight change, dose: 50.0 mg/kg/injection, schedule: Q01DX001 (ip), vehicle: Klucel (hydroxypropylcellulose) (HPC)) was 85 % of control and the T/C (endpoint: median tumor weight change, dose: 100.0 mg/kg/injection, schedule: Q01DX001 (ip), vehicle: Klucel (hydroxypropylcellulose) (HPC)) was 91 % of control. The T/C (endpoint: median tumor weight change, dose: 200.0 mg/kg/injection, schedule: Q01DX001 (ip), vehicle: Klucel (hydroxypropylcellulose) (HPC)) was 71 % of control, the T/C [1] was 68 % of control and the T/C [2] was 33 % of control.

For C=C(NC(=O)C(=C)NC(=O)c1csc(C2=NC3c4csc(n4)C4NC(=O)c5csc(n5)C(C(C)(O)C(C)O)NC(=O)C5CSC(=N5)/C(=C/C)NC(=O)C(C(C)O)NC(=O)c5csc(n5)C3(CC2)NC(=O)C(C)NC(=O)C(=C)NC(=O)C(C)NC(=O)C(C(C)CC)NC2C=Cc3c(C(C)O)cc(nc3C2O)C(=O)OC4C)n1)C(N)=O (stereo not drawn), the T/C (endpoint: median tumor weight (est.), dose: 6.25 mg/kg/injection, schedule: Q07DX005 (ip), vehicle: Klucel (hydroxypropylcellulose) (HPC)) was 72 % of control, the T/C (endpoint: median tumor weight (est.), dose: 12.5 mg/kg/injection, schedule: Q07DX005 (ip), vehicle: Klucel (hydroxypropylcellulose) (HPC)) was 64 % of control and 70 % of control and the T/C (endpoint: median tumor weight (est.), dose: 200.0 mg/kg/injection, schedule: Q07DX005 (ip), vehicle: Klucel (hydroxypropylcellulose) (HPC)) was 83 % of control and 103 % of control. The T/C (endpoint: median tumor weight (est.), dose: 400.0 mg/kg/injection, schedule: Q07DX005 (ip), vehicle: Klucel (hydroxypropylcellulose) (HPC)) was 90 % of control.

In the case of C/C=C(\C)c1cc(=O)c2c(C)cc3c(c2o1)C(=O)c1c(O)c(C2CC(C)(N(C)C)C(O)C(C)O2)cc(C2CC(N(C)C)C(O)C(C)O2)c1C3=O (stereo not drawn), the T/C (endpoint: median tumor weight change, dose: 0.16 mg/kg/injection, schedule: Q01DX001 (ip), vehicle: saline) is reported as 78 % of control, the T/C (endpoint: median tumor weight change, dose: 0.31 mg/kg/injection, schedule: Q01DX001 (ip), vehicle: saline) is reported as 51 % of control and the T/C (endpoint: median tumor weight change, dose: 0.62 mg/kg/injection, schedule: Q01DX001 (ip), vehicle: saline) is reported as 52 % of control. The T/C (endpoint: median tumor weight change, dose: 2.5 mg/kg/injection, schedule: Q01DX001 (ip), vehicle: suspension in saline) was 61 % of control, the T/C (endpoint: median tumor weight change, dose: 5.0 mg/kg/injection, schedule: Q01DX001 (ip), vehicle: suspension in saline) was 42 % of control and the T/C (endpoint: median tumor weight change, dose: 10.0 mg/kg/injection, schedule: Q01DX001 (ip), vehicle: saline) was -9 % of control.

For O=c1cc(-c2ccccc2)[nH]c2c1CCCC2, the T/C [3] was 78 % of control.

With c1ccc(CN2CCOC2)cc1 the T/C (endpoint: median tumor weight (est.), dose: 12.5 mg/kg/injection, schedule: Q07DX005 (ip), vehicle: suspension in saline) was 51 % of control, the T/C (endpoint: median tumor weight (est.), dose: 25.0 mg/kg/injection, schedule: Q07DX005 (ip), vehicle: suspension in saline) was 43 % of control and the T/C (endpoint: median tumor weight (est.), dose: 50.0 mg/kg/injection, schedule: Q07DX005 (ip), vehicle: suspension in saline) was 62 % of control. The T/C (endpoint: median tumor weight (est.), dose: 100.0 mg/kg/injection, schedule: Q07DX005 (ip), vehicle: suspension in saline) was 87 % of control.

In the case of NC(=O)/C=C/c1c[nH]c2nccnc12, the T/C (endpoint: median tumor weight change, dose: 31.25 mg/kg/injection, schedule: Q01DX001 (ip), vehicle: water) is reported as 124 % of control, the T/C (endpoint: median tumor weight change, dose: 62.5 mg/kg/injection, schedule: Q01DX001 (ip), vehicle: water) is reported as 73 % of control and the T/C [4] is reported as 58 % of control.

In the case of COC(=O)C(CSC(c1ccccc1)(c1ccccc1)c1ccccc1)NC(=O)C(CSCc1ccccc1)NC(=O)CCNC(=O)OCc1ccccc1 (stereo not drawn) ({Cbz-βAla}-Cys(Bn)-Cys(Trt)-OMe; configuration not given here), the T/C (endpoint: median tumor weight change, dose: 250.0 mg/kg/injection, schedule: Q01DX001 (ip), vehicle: Klucel (hydroxypropylcellulose) (HPC)) is reported as 107 % of control, the T/C [1] is reported as 95 % of control and the T/C [2] is reported as 90 % of control. For the same molecule, the T/C (endpoint: median tumor weight change, dose: 2000.0 mg/kg/injection, schedule: Q01DX001 (ip), vehicle: Klucel (hydroxypropylcellulose) (HPC)) was 84 % of control.

O=C(O)C1Cc2nc[nH]c2CN1CO (stereo not drawn) was tested, and the T/C (endpoint: median tumor weight change, dose: 125.0 mg/kg/injection, schedule: Q01DX001 (ip), vehicle: saline with Tween-80) was 118 % of control, the T/C [5] was 94 % of control and the T/C [6] was 93 % of control. The T/C [3] was 77 % of control and the T/C [7] was 81 % of control.

Cc1ccc(S(=O)(=O)NC(=O)OC23COCN2COC3)cc1 was tested, and the T/C [4] was 170 % of control, the T/C [5] was 111 % of control and the T/C [6] was 90 % of control. For the same molecule, the T/C (endpoint: median tumor weight change, dose: 500.0 mg/kg/injection, schedule: Q01DX001 (ip), vehicle: water) was 162 % of control, the T/C (endpoint: median tumor weight change, dose: 1000.0 mg/kg/injection, schedule: Q01DX001 (ip), vehicle: water) was 222 % of control and the T/C [7] was 74 % of control. The T/C (endpoint: median tumor weight change, dose: 2000.0 mg/kg/injection, schedule: Q01DX001 (ip), vehicle: water) was 184 % of control.

In the case of CC[C@](O)(C(=O)O)c1cc2n(c(=O)c1CO)Cc1cc3ccccc3nc1-2, the T/C (endpoint: mean tumor weight (est.), dose: 20.0 mg/kg/injection, schedule: Q07DX004 (ip), vehicle: saline) is reported as 70 % of control, the T/C (endpoint: mean tumor weight (est.), dose: 40.0 mg/kg/injection, schedule: Q07DX004 (ip), vehicle: saline) is reported as 61 % of control and the T/C (endpoint: mean tumor weight (est.), dose: 60.0 mg/kg/injection, schedule: Q07DX004 (ip), vehicle: saline) is reported as 48 % of control. For the same molecule, the T/C (endpoint: mean tumor weight, dose: 2.5 mg/kg/injection, schedule: Q01DX009 (ip), vehicle: saline) was 55 % of control, the T/C (endpoint: mean tumor weight, dose: 10.0 mg/kg/injection, schedule: Q07DX006 (ip), vehicle: saline) was 13 % of control and the T/C (endpoint: mean tumor weight, dose: 20.0 mg/kg/injection, schedule: Q07DX006 (ip), vehicle: saline) was 36 % of control and 42 % of control. The T/C (endpoint: mean tumor weight, dose: 20.0 mg/kg/injection, schedule: Q07DX007 (ip), vehicle: saline) was 102 % of control, the T/C (endpoint: mean tumor weight, dose: 40.0 mg/kg/injection, schedule: Q07DX006 (ip), vehicle: saline) was 23 % of control and the T/C (endpoint: mean tumor weight, dose: 40.0 mg/kg/injection, schedule: Q07DX007 (ip), vehicle: saline) was 71 % of control. The T/C (endpoint: mean tumor weight, dose: 60.0 mg/kg/injection, schedule: Q07DX006 (ip), vehicle: saline) was 2 % of control, the T/C (endpoint: mean tumor weight, dose: 80.0 mg/kg/injection, schedule: Q07DX007 (ip), vehicle: saline) was 49 % of control and the T/C (endpoint: median tumor weight (est.), dose: 6.25 mg/kg/injection, schedule: Q07DX005 (ip), vehicle: saline) was 58 % of control. The T/C (endpoint: median tumor weight (est.), dose: 12.5 mg/kg/injection, schedule: Q07DX005 (ip), vehicle: saline) was 59 % of control and the T/C (endpoint: median tumor weight (est.), dose: 25.0 mg/kg/injection, schedule: Q07DX005 (ip), vehicle: saline) was 41 % of control.

In the case of O=c1cnn(C2OC(CO)C(O)C2O)c(=O)[nH]1 (stereo not drawn), the T/C (endpoint: mean tumor weight, dose: 125.0 mg/kg/injection, schedule: Q07DX004 (ip), vehicle: saline) is reported as 67 % of control, the T/C (endpoint: mean tumor weight, dose: 250.0 mg/kg/injection, schedule: Q07DX004 (ip), vehicle: saline) is reported as 49 % of control and the T/C (endpoint: median tumor weight (est.), dose: 100.0 mg/kg/injection, schedule: Q07DX005 (ip), vehicle: saline with Tween-80) is reported as 63 % of control. The T/C (endpoint: median tumor weight (est.), dose: 100.0 mg/kg/injection, schedule: Q07DX005 (ip), vehicle: saline) was 17 % of control, the T/C (endpoint: median tumor weight (est.), dose: 200.0 mg/kg/injection, schedule: Q07DX005 (ip), vehicle: saline with Tween-80) was 95 % of control and the T/C (endpoint: median tumor weight (est.), dose: 200.0 mg/kg/injection, schedule: Q07DX005 (ip), vehicle: saline) was 63 % of control. The T/C (endpoint: median tumor weight (est.), dose: 400.0 mg/kg/injection, schedule: Q07DX005 (ip), vehicle: saline with Tween-80) was 53 % of control, the T/C (endpoint: median tumor weight (est.), dose: 400.0 mg/kg/injection, schedule: Q07DX005 (ip), vehicle: saline) was 41 % of control and the T/C (endpoint: median tumor weight (est.), dose: 800.0 mg/kg/injection, schedule: Q07DX005 (ip), vehicle: saline with Tween-80) was 66 % of control. The T/C (endpoint: median tumor weight (est.), dose: 800.0 mg/kg/injection, schedule: Q07DX005 (ip), vehicle: saline) was 64 % of control, the T/C (endpoint: median tumor weight (est.), dose: 1600.0 mg/kg/injection, schedule: Q07DX005 (ip), vehicle: saline with Tween-80) was 68 % of control and the T/C (endpoint: median tumor weight (est.), dose: 3200.0 mg/kg/injection, schedule: Q07DX005 (ip), vehicle: saline with Tween-80) was 54 % of control. The T/C (endpoint: median tumor weight (est.), dose: 3200.0 mg/kg/injection, schedule: Q07DX005 (ip), vehicle: saline) was 76 % of control.

Cc1cc(O)c2c(c1O)C(=O)C13C(=C2O)C(=O)C2C(O)C1C1C(O)C3C(=O)C3=C(O)c4c(O)cc(C)c(O)c4C(=O)C321 (stereo not drawn) was tested, and the T/C (endpoint: median tumor weight change, dose: 15.62 mg/kg/injection, schedule: Q01DX001 (ip), vehicle: saline with Tween-80) was 38 % of control and the T/C (endpoint: median tumor weight change, dose: 31.25 mg/kg/injection, schedule: Q01DX001 (ip), vehicle: saline with Tween-80) was 100 % of control.

In the case of COc1cccc2c1C(=O)c1c(O)c3c(c(O)c1C2=O)CC(O)(/C(C)=N/NC(=O)CCC(=O)N/N=C(\C)C1(O)Cc2c(O)c4c(c(O)c2C(OC2CC(N)C(O)C(C)O2)C1)C(=O)c1c(OC)cccc1C4=O)CC3OC1CC(N)C(O)C(C)O1 (stereo not drawn), the T/C (endpoint: median tumor weight (est.), dose: 1.5 mg/kg/injection, schedule: Q07DX005 (ip), vehicle: water) is reported as 167 % of control, the T/C (endpoint: median tumor weight (est.), dose: 6.0 mg/kg/injection, schedule: Q07DX005 (ip), vehicle: water) is reported as 45 % of control and the T/C (endpoint: median tumor weight (est.), dose: 12.0 mg/kg/injection, schedule: Q07DX005 (ip), vehicle: water) is reported as 17 % of control and 40 % of control. For the same molecule, the T/C (endpoint: median tumor weight (est.), dose: 24.0 mg/kg/injection, schedule: Q07DX005 (ip), vehicle: water) was 7 % of control.
